# ChEMBL document CHEMBL5252554, “Stereodivergent Hydroxylation of Berkeleylactones by Penicillium turbatum” (J Nat Prod, 2023)
# Key:
# [1] = Antiproliferative activity against mouse NS-1 cells assessed as cell growth inhibition measured after 72 hrs by resazurin dye based assay; assay type: functional; conditions: for IC50: NS1, 72 h
# Giardia intestinalis = experiment: Antiprotozoal activity against Giardia duodenalis 713 assessed as protozoal growth inhibition measured after 96 hrs under anaerobic conditions; assay type: functional
# Staphylococcus aureus = experiment: Antibacterial activity against Staphylococcus aureus ATCC 25923 assessed as bacterial growth inhibition measured after 48 hrs by resazurin dye based assay; assay type: functional
# Bacillus subtilis = experiment: Antibacterial activity against Bacillus subtilis ATCC 6633 assessed as bacterial growth inhibition measured after 48 hrs by resazurin dye based assay; assay type: functional
# Saccharomyces cerevisiae = experiment: Antifungal activity against Saccharomyces cerevisiae ATCC 9763 assessed as fungal growth inhibition measured after 48 hrs by bromocresol green staining based method; assay type: functional
# Escherichia coli = experiment: Antibacterial activity against Escherichia coli ATCC 25922 assessed as bacterial growth inhibition measured after 48 hrs by resazurin dye based assay; assay type: functional, organism-based
Compound,IC50 [1],MIC (Staphylococcus aureus),MIC (Bacillus subtilis),further results
C[C@@H]1C[C@@H](O)CCCCCCC[C@H](O)[C@H](O)/C=C/C(=O)O1,32 µM,50 µg/mL,–,LD99 (Giardia intestinalis): 50 µg/mL
CO[C@@]12[C@H](COC(N)=O)C3=C(C(=O)C(C)=C(N)C3=O)N1C[C@@H]1N[C@@H]12 [MITOMYCIN],–,–,–,MIC ([1]; time 72 hrs): 0.93 µM
COC(=O)CCC(=O)O[C@H]1CCCCCCCCC[C@@H](C)OC(=O)/C=C/[C@H]1O,5.9 µM,25 µg/mL,12.5 µg/mL,–
C[C@@H]1CCCCCCCCC[C@H](OC(=O)CCC(=O)O)C(=O)/C=C/C(=O)O1,3.1 µM,0.4 µg/mL,–,–
C[C@@H]1[C@H](O)[C@@H](C)/C=C/C=C/C=C/C=C/C=C/C=C/C=C/[C@H](O[C@@H]2O[C@H](C)[C@@H](O)[C@H](N)[C@@H]2O)C[C@@H]2O[C@](O)(C[C@@H](O)C[C@@H](O)[C@H](O)CC[C@@H](O)C[C@@H](O)CC(=O)O[C@H]1C)C[C@H](O)[C@H]2C(=O)O [AMPHOTERICIN B],–,–,–,MIC (Saccharomyces cerevisiae): 0.3 µM
GENTAMICIN,–,800 nM,800 nM,MIC (Escherichia coli): 1700 nM
